Paper PMC4772543, “Immune responses to Mycobacterial heat shock protein 70 accompany self-reactivity to human BiP in rheumatoid arthritis” (Scientific Reports, 2016)

Key:
HLA-DR4 transgenic mice = experiment: Immunization of HLA-DR4 transgenic mice with MycHSP70, serum antibody titers by ELISA; format: in vivo, mouse; settings: 100 μg MycHSP70 with complete Freund's adjuvant subcutaneously
Description: (§1) Figure 5 Immunization of HLA-DR4 transgenic mice with MycHSP70. (A) HLA-DR4 transgenic mice were immunized with recombinant MycHSP70. Serum anti-MycHSP70 and anti-mouse BiP antibody titers were measured in the 21 days following the first immunization. (B) Splenic CD4+ T cell proliferation from MycHSP70-immunized HLA-DR4 transgenic mice in response to MycHSP70_287–306 and BiP336–355 epitopes. Proliferation was determined by the incorporation of [3]-H thymidine. Data were representative of at least three independent trials. ***p < 0.001.
Serum antibodies were measured by ELISA as previously reported. Briefly, 96-well plates (Thermo Fisher Scientific) were coated with 5 μg/mL of each antigen and dissolved in 0.1 M NaHCO3. […]
(§2) HLA-DR4 transgenic mice were obtained from Taconic, immunized twice (day 0, 14) with 100 μg of MycHSP70 with the same volume of complete Freund’s adjuvant subcutaneously into the tails, and sacrificed on day 21. MACS-purified CD4^+ T cells (1 × 10^5/mL) were cultured with irradiated splenocytes (1 × 10^6/mL) and an antigen (10 μg/mL) in RPMI 1640 medium supplemented with 5% FCS, 2 mM L-glutamine, 100 U/ml penicillin, 100 μg/ml streptomycin, and 5 × 10^−5 M 2-mercaptoethanol in a humidified incubator at 37 °C, 5% CO2, for 72 h. ^3H-thymidine was pulsed to each well, cells were harvested after an 18-hour incubation, and analyzed with a scintillation counter.

[1] = test system: CD4+ T cells from MycHSP70-immunized HLA-DR4 transgenic mice; experiment: Splenic CD4+ T cell proliferation from MycHSP70-immunized HLA-DR4 transgenic mice in response to epitopes; format: cell-based, mouse; settings: antigen 10 μg/mL, 72 h, irradiated splenocytes, 3H-thymidine
Description: as §1, §2

T cells in RA = settings: cited from earlier work
From the text: MycHSP70 and BiP share 50% of their amino acid sequences, and MycHSP70_287–306 is located at a position corresponding to that of the BiP-derived HLA-DR4 effector epitope. We previously identified two major BiP-derived HLA-DR4 epitopes in RA. […] MycHSP70_287–306 strongly induces proliferation and is regarded as an effector epitope. MycHSP70_287–306 and BiP336–355 share 50% of the amino acids in their core sequences, which bind HLA-DR pockets. They also share the P4V residue, whi ...

Substance: MycHSP70: recombinant Mycobacterial heat shock protein 70 (NCBI GenBank AF2122/97)
- serum antibody titers to MycHSP70 (HLA-DR4 transgenic mice; day 0 and 14, serum day 21): elevation
- serum antibody titers to BiP (HLA-DR4 transgenic mice; day 0 and 14, serum day 21, anti-mouse BiP): elevation

Substance: RSTMKPVQKVLEDSDLKKSD [BiP336–355, reference compound]
- CD4+ T cell proliferation in response to peptide [1]: significant proliferation
- T cell type recognizing the BiP-derived HLA-DR4 epitope (T cells in RA): recognized by effector T cells
